System: osteoclast precursors
Assay: Osteoclastogenesis from osteoclast precursors with lenalidomide
Format: cell-based
Description: FIG. 15. Therefore, there is a possible synergistic or additive anti-osteoclastogenic effect of PDACs and lenalidomide at concentration of between about 0.1 μM to 1 μM.

Nc1cccc2c1CN(C1CCC(=O)NC1=O)C2=O (centres unmarked) [lenalidomide, 3-(4-amino-1-oxo 1,3-dihydro-2H-isoindol-2-yl) piperidine-2,6-dione]
number of osteoclasts that differentiated from the osteoclast precursors (0.1 μM or 1 μM lenalidomide with placental stem cells, vs placental stem cells or BM-MSC): further decrease the number of osteoclasts | number of osteoclasts formed (lenalidomide alone at concentrations around 1 μM): steep decline in the number of osteoclasts formed

From patent US9121007B2, “Treatment of bone-related cancers using placental stem cells” (ANTHROGENESIS CORPORATIN, priority 2010, dated 2015)
